Measured values from patent US20190211020A1 (Agency for Science, Technology and Research, priority 2012, published 2019).
Where two headings read alike, the source gives them in different places.

Legend:
[1] = system: eIF4E Ser209 phosphorylation in Hela cells; experiment: MNK cell-based assay (AlphaScreen SureFire, eIF4E Ser209 phosphorylation); settings: Homo sapiens, read-out: IC50 Hela
In short: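 Hela cells (30,000/well) exposed to test compound in serum-free medium for 2 h at 37 °C, then lysed. Phospho-Ser209 eIF4E quantified by AlphaScreen SureFire; IC50 obtained by non-linear regression of signal versus log compound concentration.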

[2] = system: eIF4E phosphorylation in K562 cells; experiment: Western blot of eIF4E phosphorylation in K562 cells; type: cell-based; settings: various concentrations, 24 h
Method: K562 cell line was obtained from the ATCC, and grown in RPMI supplemented with 10% FCS, L-glutamine, and penicillin/streptomycin.
Exponentially growing cells were plated at 2×10^5 cells/ml, and whole cell lysate processed for western blot analysis using antibodies recognizing eIF4E, phospho-eIF4E (Cell signaling Technology),

[3] = system: phospho-eIF4E S209 in BC-CML primary cells; experiment: Immunofluorescence of phospho-eIF4E in BC-CML primary cells; type: cell-based, human; settings: 48 h
Excerpt: (§1) Cord Blood (CB) samples were purchased from the Singapore Cord Blood bank. CML samples were the Singapore General Hospital after signed informed consent under local IRB-approved procedures. MNCs were obtained using Ficoll separation, and CD34^+ cells selected by immunomagnetic beads (Miltenyi Biotech, Germany).
Cells (1×10^5) were cytospun onto glass slides, fixed with 4% paraformaldehye, and stained with mouse monoclonal antibodies against activated β-catenin (clone 8E7, Millipore, UK), or rabbit monoclonal antibodies against phospho-eIF4E S209 (EP2151Y, Abcam, UK). Slides were then stained with either PE-conjugated anti-mouse or FITC-conjugated anti-rabbit antibodies. Images were obtained with the use of a fluorescence microscope (Olympus IX71S1F3) at 40× magnification.

[4] = system: CD34+ BC cells; experiment: Serial replating assay, CD34+ BC-CML cells; type: cell-based, human; settings: for serial replating efficiency of CD34+ BC cells compared to DMSO: increasing dose, 48 hr treatment, three replatings (>8 weeks)
Excerpt: as §1
CD34-enriched CB and BC cells were thawed and allowed to recover overnight in serum-free StemPro media (Invitrogen, Carlsbad, Calif.), supplemented with human growth factors and 1× nutrient supplement (Invitrogen). Cells were then subjected to drug treatment for 48 hr, harvested, washed, and seeded in methycellulose (H4434, […] Technologies, Canada). Colonies were enumerated after 2 weeks, individually picked, and replated in fresh methylcellulose in a 96-well format, and counted at 2 weeks. Three rounds of serial replating (representing >8 weeks in culture) were performed.

[5] = biological target: T1, MNK1 (Homo sapiens, UniProt Q9BUB5); experiment: In vitro MNK kinase assay (Caliper LabChip mobility shift), MNK1; type: biochemical; settings: enzymatic; 1.2 mM ATP
T1 construct: recombinant kinase domains expressed in E. coli; fused on or other part: N-terminal GST tag, removed with PreScission protease before the test
T1 sequence (Q9BUB5 1-424 isoform Q9BUB5-2): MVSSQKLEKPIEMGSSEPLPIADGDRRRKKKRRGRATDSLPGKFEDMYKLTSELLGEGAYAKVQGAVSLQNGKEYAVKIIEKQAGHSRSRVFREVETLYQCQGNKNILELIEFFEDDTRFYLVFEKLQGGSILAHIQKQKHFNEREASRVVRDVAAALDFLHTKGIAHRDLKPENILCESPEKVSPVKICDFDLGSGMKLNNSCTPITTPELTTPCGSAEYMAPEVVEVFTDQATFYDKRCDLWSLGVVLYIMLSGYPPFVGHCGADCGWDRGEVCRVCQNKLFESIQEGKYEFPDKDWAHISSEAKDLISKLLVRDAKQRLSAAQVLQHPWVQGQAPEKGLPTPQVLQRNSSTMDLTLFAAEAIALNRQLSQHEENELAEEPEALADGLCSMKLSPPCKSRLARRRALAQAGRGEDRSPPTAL
Method: (§2) MNK1 and MNK2 inhibitor activity was determined using recombinant kinase domains expressed in E. coli. MNK1 and MNK2 were expressed as GST fusion proteins and the GST tag was removed using PreScission protease. After concentration to 10-15 mg/ml the proteins were flash frozen in liquid nitrogen and stored at −80° C.
(§3) This reaction mixture was then used immediately for the activation of the MNKs. The activation of the MNK1 was performed by incubating 5.0 μM of MNK1 with 0.3 μM of activated ERK2 and 500 μM ATP at 30° C. for 6 hours. The activation of MNK2 was performed by incubating 50 μM of MNK2 with 3.0 μM of activated ERK2 and 500 μM ATP at 30° C. for 2 hours. The activated MNKs were stored at −20° C. until required for assay.
(§4) Kinase assays were performed on the Caliper Life Sciences (Mountain View, Calif.) Microfluidics LabChip® Platform. Enzyme activity is analyzed by ‘sipping’ reactions from a microtitre plate into LabChip. The data signature is generated by the shift in mobility of non-phosphorylated peptide substrates and phosphorylated products by electrophoresis in the chip and detected by LED induced fluorescence. […] The data is analyzed by calculating the relative heights of the substrate and product peaks and the product/(product+substrate) peak ratio is reported.
(§5) The following buffers were used to assay kinase activity:
(§6) Reconstitution buffer: 10 mM HEPES/NaOH pH7.5, 0.003% Brij® L23, 0.004% TWEEN® 20.
(§7) Separation buffer: 100 mM HEPES/NaOH pH7.3, 0.02% Brij® L23, 5% DMSO, 0.1% CR3, 1 mM EDTA pH8.0.
(§8) The reaction was stopped by the addition of […] termination buffer.
(§9) Inhibition constants (IC50) were determined by plotting kinase activity versus log compound concentration and fitting with a non-linear regression algorithm using GraphPad Prism (GraphPad Software Inc.).

[6] = biological target: T2, MNK2 (Homo sapiens, UniProt Q9HBH9); experiment: In vitro MNK kinase assay (Caliper LabChip mobility shift), MNK2; type: biochemical; settings: enzymatic; 250 μM ATP
T2 construct: GST (cleaved yes); made in house; host or cells: E. coli
T2 sequence (Q9HBH9 84-388 limits assumed): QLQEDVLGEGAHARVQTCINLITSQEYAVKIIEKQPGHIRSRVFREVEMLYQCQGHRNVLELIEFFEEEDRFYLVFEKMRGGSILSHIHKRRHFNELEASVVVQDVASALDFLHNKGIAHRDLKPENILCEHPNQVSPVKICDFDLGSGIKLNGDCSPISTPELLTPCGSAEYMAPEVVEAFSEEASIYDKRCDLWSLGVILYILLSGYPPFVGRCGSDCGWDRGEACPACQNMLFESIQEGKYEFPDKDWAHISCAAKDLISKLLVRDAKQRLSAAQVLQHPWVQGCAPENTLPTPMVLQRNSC
Method: as §2, §3, §4, §5, §6, §7, §8, §9

[7] = system: eIF4E phosphorylation in BC GMPs; settings: background; cited from earlier work
[8] = system: active nuclear beta-catenin in BC GMPs; settings: background; cited from earlier work
[9] = system: CD34+BC cells (including those carrying T315I mutation); settings: background; cited from earlier work
[10] = system: patient-derived BC cells in NSG mice; settings: 40 mg/kg/d CGP or 5 mg/kg/d dasatinib for three weeks; read at 16 weeks; cited from earlier work
[11] = eIF4E Ser209 phosphorylation, Hela cells, 2 hours

Structure (SMILES) | IC50 [1, 11] [nM] | eIF4E phosphorylation in K562 (BC-CML cell line), Western blot [2] | eIF4E phosphorylation in BC-CML primary cells, immunofluorescence [3] | IC50 [5] [nM] | IC50 [6] [nM] | further results
CN1CCN(C(=O)c2ccc(-c3cn4c(-c5ccc(O)cc5)cnc4cn3)cc2)CC1 [Example 1, (4-(3-(4-hydroxyphenyl)imidazo[1,2-a]pyrazin-6-l)phenyl)(4-methylpiperazin-1-yl)methanone] | < 1000 | prevent eIF4E phosphorylation | prevent eIF4E phosphorylation |  |  | serial replating efficiency of CD34+ BC cells compared to DMSO [4]: retards the serial replating efficiency
O=C(c1ccc(-c2cn3c(-c4ccc(O)cc4)cnc3cn2)cc1)N1CCOCC1 [Example 2, (4-(3-(4-hydroxyphenyl)imidazo[1,2-a]pyrazin-6-yl)phenyl)(morpholino)methanone] | < 1000 | prevent eIF4E phosphorylation | prevent eIF4E phosphorylation |  |  | ability of BC cells to serial replate ([4]; at 10.0 μM and 20.0 μM): potently impaired the ability of BC cells to serial replate; serial replating efficiency of CD34+ BC cells compared to DMSO [4]: retards serial replating efficiency
CN1CCN(C(=O)c2ccc(-c3cn4c(-c5ccc(C#N)cc5)cnc4cn3)cc2)CC1 [Example 6, 4-(6-(4-(4-methylpiperazine-1-carbonyl)phenyl)imidazo[1,2-a]pyrazin-3-yl)benzonitrile] |  | prevent eIF4E phosphorylation | prevent eIF4E phosphorylation |  |  | IC50 ([1]; HeLa, 2 h): < 1000 nM
Cc1cc(-c2cn3c(-c4ccc(C#N)cc4)cnc3cn2)ccc1C(=O)N1CCC(N)CC1 [Example 27, 4-(6-(4-(4-aminopiperidine-1-carbonyl)-3-methylphenyl)imidazo [1,2-a]pyrazin-3-yl)benzonitrile] | < 1000 |  |  | < 100 | < 100 | 
CC(=O)NC1CCN(C(=O)c2ccc(-c3cn4c(-c5ccc(Cl)cc5)cnc4cn3)cc2)CC1 [Example 49] | < 1000 |  |  | < 1000 | < 1000 | 
CC(=O)Nc1cc(-c2ccc3ncc(-c4ccc(C#N)cc4)n3n2)ccc1C(=O)N1CCOCC1 [Example 80, N-(5-(3-(4-cyanophenyl)imidazo[1,2-b]pyridazin-6-yl)-2-(morpholine-4-carbonyl)phenyl)acetamide] | < 1000 |  |  | < 100 | < 100 | 
N#Cc1ccc(-c2cnc3ccc(-c4ccc(C(=O)N5CCN(c6ccncc6)CC5)cc4)cn23)cc1 [Example 125, 4-(6-(4-(4-(pyridin-4-yl)piperazine-1-carbonyl)phenyl)imidazo[1,2-a]pyridin-3-yl)benzonitrile] | < 1000 |  |  | < 100 | < 100 | 
Cc1nc(Nc2ncc(C(=O)Nc3c(C)cccc3Cl)s2)cc(N2CCN(CCO)CC2)n1 [dasatinib] |  |  |  |  |  | eIF4E phosphorylation in BC GMPs [7]: not; accumulation of active nuclear beta-catenin in BC GMPs [8]: not; ability of CD34+ BC cells to serially replate for more than 8 weeks in methylcellulose [9]: only partially impaired; serial transplantation of BC cells in NSG mice after in vivo treatment [10]: not
Cc1ccc(NC(=O)c2ccc(CN3CCN(C)CC3)cc2)cc1Nc1nccc(-c2cccnc2)n1 [imatinib] |  |  |  |  |  | eIF4E phosphorylation in BC GMPs [7]: not; accumulation of active nuclear beta-catenin in BC GMPs [8]: not; ability of CD34+ BC cells to serially replate for more than 8 weeks in methylcellulose [9]: only partially impaired
